Patent publication US10183914B2 (BAYER CROPSCIENCE AKTIENGESELLSCHAFT, priority 2014, dated 2019)

Experiments:
Oryza sativa [1] = assay: Pre-emergence herbicidal effect and crop plant compatibility; format: in vivo; settings: 80 g/ha, 3 weeks
Procedure, shortened: (§1)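 Application to covering soil post-sowing: WP or EC, 600–800 L/ha, 0.2% wetting agent. Readout: visual % efficacy after 3 weeks, greenhouse, untreated plants as 0%.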

Zea mays [2] = assay: as above; format: in vivo; settings: 3 weeks
Procedure, shortened: as §1

[3] = logp (HCOOH), physicochemical characterization
Oryza sativa [4] = assay: Post-emergence herbicidal effect and crop plant compatibility; format: in vivo; settings: visual scoring after about 3 weeks
Procedure, shortened: (§2)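 Post-emergence greenhouse trial. Seedlings in sandy loam sprayed at one-leaf stage; application volume 600 to 800 L/ha with 0.2% wetting agent. Scored by eye at ~3 weeks (100% = death).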

Zea mays [5] = assay: as above; format: in vivo; settings: visual scoring after about 3 weeks
Procedure, shortened: as §2

[6] = test system: Triticum aestivum (spring); assay: as above; format: in vivo; settings: visual scoring after about 3 weeks
Procedure, shortened: as §2

Echinochloa crus-galli [7] = assay: Pre-emergence herbicidal effect; format: in vivo; settings: 3 weeks
Procedure, shortened: as §1

Viola tricolor = assay: Pre-emergence herbicidal effect; format: in vivo; settings: 3 weeks
Procedure, shortened: as §1

Veronica persica = assay: Pre-emergence herbicidal effect; format: in vivo; settings: 3 weeks
Procedure, shortened: as §1

Avena fatua [8] = assay: Pre-emergence herbicidal effect; format: in vivo; settings: 3 weeks
Procedure, shortened: as §1

Polygonum convolvulus = assay: Pre-emergence herbicidal effect; format: in vivo; settings: 3 weeks
Procedure, shortened: as §1

Stellaria media = assay: Pre-emergence herbicidal effect; format: in vivo; settings: 3 weeks
Procedure, shortened: as §1

Alopecurus myosuroides [9] = assay: Pre-emergence herbicidal effect; format: in vivo; settings: 3 weeks
Procedure, shortened: as §1

Lolium multiflorum [10] = assay: Pre-emergence herbicidal effect; format: in vivo; settings: 3 weeks
Procedure, shortened: as §1

Setaria viridis [11] = assay: Pre-emergence herbicidal effect; format: in vivo; settings: 3 weeks
Procedure, shortened: as §1

Amaranthus retroflexus = assay: Pre-emergence herbicidal effect; format: in vivo; settings: 3 weeks
Procedure, shortened: as §1

Matricaria inodora = assay: Pre-emergence herbicidal effect; format: in vivo; settings: 3 weeks
Procedure, shortened: as §1

Echinochloa crus-galli [12] = assay: Post-emergence herbicidal effect; format: in vivo; settings: visual scoring after about 3 weeks
Procedure, shortened: as §2

Avena fatua [13] = assay: Post-emergence herbicidal effect; format: in vivo; settings: 320 g/ha, visual scoring after about 3 weeks
Procedure, shortened: as §2

Ipomoea purpurea = assay: Post-emergence herbicidal effect; format: in vivo; settings: scoring after about 3 weeks
Procedure, shortened: as §2

[14] = test system: Triticum aestivum (spring); assay: Pre-emergence herbicidal effect and crop plant compatibility; format: in vivo; settings: 80 g/ha, 3 weeks
Procedure, shortened: as §1

Cyperus esculentus = assay: Pre-emergence herbicidal effect; format: in vivo; settings: 3 weeks
Procedure, shortened: as §1

Lolium multiflorum [15] = assay: Post-emergence herbicidal effect; format: in vivo; settings: visual scoring after about 3 weeks
Procedure, shortened: as §2

Alopecurus myosuroides [16] = assay: Post-emergence herbicidal effect; format: in vivo; settings: 320 g/ha, visual scoring after about 3 weeks
Procedure, shortened: as §2

Setaria viridis [17] = assay: Post-emergence herbicidal effect; format: in vivo; settings: 320 g/ha (dose by row order of upper half), scoring after about 3 weeks
Procedure, shortened: as §2

Abutilon theophrasti = assay: Pre-emergence herbicidal effect; format: in vivo; settings: 320 g/ha, 3 weeks
Procedure, shortened: as §1

[18] = 80 g/ha (dose by row order of upper half)
[19] = 320 g/ha (dose by row order of upper half)

Row | SMILES | ZEAMX herbicidal activity in percent (Zea mays [2]; 80 g/ha) | post-emergence efficacy ORYSA (Oryza sativa [4]; 80 g/ha) | post-emergence efficacy ZEAMX (Zea mays [5]; 80 g/ha) | post-emergence efficacy TRZAS ([6]; 80 g/ha) | ECHCG herbicidal activity in percent (Echinochloa crus-galli [7]; 80 g/ha) | ECHCG herbicidal activity in percent (Echinochloa crus-galli [7]; 320 g/ha) | VIOTR herbicidal activity in percent (Viola tricolor; 80 g/ha) | VIOTR herbicidal activity in percent (Viola tricolor; 320 g/ha) | VERPE herbicidal activity in percent (Veronica persica; 80 g/ha) | VERPE herbicidal activity in percent (Veronica persica; 320 g/ha) | POLCO herbicidal activity in percent (Polygonum convolvulus; 80 g/ha) | POLCO herbicidal activity in percent (Polygonum convolvulus; 320 g/ha) | STEME herbicidal activity in percent (Stellaria media; 80 g/ha) | STEME herbicidal activity in percent (Stellaria media; 320 g/ha) | ALOMY herbicidal activity in percent (Alopecurus myosuroides [9]; 80 g/ha) | ALOMY herbicidal activity in percent (Alopecurus myosuroides [9]; 320 g/ha) | LOLMU herbicidal activity in percent (Lolium multiflorum [10]; 80 g/ha) | LOLMU herbicidal activity in percent (Lolium multiflorum [10]; 320 g/ha) | SETVI herbicidal activity in percent (Setaria viridis [11]; 80 g/ha) | SETVI herbicidal activity in percent (Setaria viridis [11]; 320 g/ha) | also measured
1 | Cc1ccc2c(c1)[C@H](Nc1ncc3c(n1)CC(C)CC3=O)[C@@H](C)C2 (stereo partly drawn) [2.44] | 10% | 0% | 10% | 0% | 90% | 100% | 100% | 100% | 100% | 100% | 90% | 100% | 100% | 100% | 80% | 100% | 100% | 100% | 100% | 100% | ORYSA herbicidal activity in percent (Oryza sativa [1]): 20%; logp (HCOOH) [3]: oily; logp (HCOOH): 3.90;; post-emergence efficacy ORYSA (Oryza sativa [4]; 320 g/ha): 0%; post-emergence efficacy TRZAS ([6]; 320 g/ha): 0%; AVEFA herbicidal activity in percent (Avena fatua [8]; 80 g/ha): 0%; AVEFA herbicidal activity in percent (Avena fatua [8]; 320 g/ha): 80%; AMARE herbicidal activity in percent (Amaranthus retroflexus; 80 g/ha): 100%; AMARE herbicidal activity in percent (Amaranthus retroflexus; 320 g/ha): 100%; MATIN herbicidal activity in percent (Matricaria inodora; 80 g/ha): 90%; MATIN herbicidal activity in percent (Matricaria inodora; 320 g/ha): 100%; post-emergence efficacy ECHCG (Echinochloa crus-galli [12]; 80 g/ha): 100%; post-emergence efficacy ECHCG (Echinochloa crus-galli [12]; 320 g/ha): 100%; post-emergence efficacy AVEFA (Avena fatua [13]): 90%; post-emergence efficacy PHBPU (Ipomoea purpurea; [18]): 100%; post-emergence efficacy PHBPU (Ipomoea purpurea; [19]): 100%
2 | O=C1CCCc2nc(N[C@@H]3CCCc4ccccc43)ncc21 [2.23] | 0% | 20% | 0% | 0% | 80% | 100% | 100% | 100% | 100% | 100% | 100% | 100% | 100% | 100% | 80% | 100% | 80% | 100% | 100% | 100% | ORYSA herbicidal activity in percent (Oryza sativa [1]): 5%; TRZAS herbicidal activity in percent [14]: 0%; post-emergence efficacy ORYSA (Oryza sativa [4]; 320 g/ha): 20%; post-emergence efficacy TRZAS ([6]; 320 g/ha): 0%; AVEFA herbicidal activity in percent (Avena fatua [8]; 320 g/ha): 90%; AMARE herbicidal activity in percent (Amaranthus retroflexus; 80 g/ha): 100%; AMARE herbicidal activity in percent (Amaranthus retroflexus; 320 g/ha): 100%; MATIN herbicidal activity in percent (Matricaria inodora; 80 g/ha): 100%; MATIN herbicidal activity in percent (Matricaria inodora; 320 g/ha): 100%; CYPES herbicidal activity in percent (Cyperus esculentus; 320 g/ha): 90%; post-emergence efficacy ECHCG (Echinochloa crus-galli [12]; 320 g/ha): 90%; post-emergence efficacy AVEFA (Avena fatua [13]): 100%; post-emergence efficacy PHBPU (Ipomoea purpurea; [19]): 80%; post-emergence efficacy LOLMU (Lolium multiflorum [15]; 320 g/ha): 100%
3 | CC(=O)c1cnc(N[C@H]2c3cc(C)ccc3C[C@@H]2C)nc1C [1.26] | 0% | 0% | 0% | 0% | 100% | 100% | 100% | 100% | 100% | 100% | 100% | 100% | 100% | 100% | 90% | 90% | 80% | 100% | 100% | 100% | ZEAMX herbicidal activity in percent (Zea mays [2]; 320 g/ha): 0%; TRZAS herbicidal activity in percent [14]: 0%; logp (HCOOH) [3]: solid; logp (HCOOH): 3.56; 1H-NMR (CDCl3, 400 MHZ, δ in ppm): 1.20 (d, 3H,; post-emergence efficacy ORYSA (Oryza sativa [4]; 320 g/ha): 0%; post-emergence efficacy ZEAMX (Zea mays [5]; 320 g/ha): 0%; AMARE herbicidal activity in percent (Amaranthus retroflexus; 80 g/ha): 100%; AMARE herbicidal activity in percent (Amaranthus retroflexus; 320 g/ha): 100%; MATIN herbicidal activity in percent (Matricaria inodora; 80 g/ha): 100%; MATIN herbicidal activity in percent (Matricaria inodora; 320 g/ha): 100%; CYPES herbicidal activity in percent (Cyperus esculentus; 80 g/ha): 80%; CYPES herbicidal activity in percent (Cyperus esculentus; 320 g/ha): 80%; post-emergence efficacy ECHCG (Echinochloa crus-galli [12]; 80 g/ha): 90%; post-emergence efficacy ECHCG (Echinochloa crus-galli [12]; 320 g/ha): 100%; post-emergence efficacy AVEFA (Avena fatua [13]): 80%; post-emergence efficacy ALOMY (Alopecurus myosuroides [16]): 90%; post-emergence efficacy PHBPU (Ipomoea purpurea; [19]): 90%; post-emergence efficacy LOLMU (Lolium multiflorum [15]; 320 g/ha): 80%; post-emergence efficacy SETVI (Setaria viridis [17]): 90%
4 | Cc1ccc2c(c1)[C@H](Nc1ncc3c(n1)CCCC3=O)[C@@H](C)C2 [2.43] | 20% | 10% | 0% | 10% | 100% | 100% | 100% | 100% | 100% | 100% | 100% | 100% | 100% | 100% | 100% | 100% | 100% | 100% | 90% | 100% | TRZAS herbicidal activity in percent [14]: 0%; logp (HCOOH) [3]: solid; logp (HCOOH): 3.45; 1H-NMR (CDCl3, 400 MHZ, δ in ppm): 1.25 (t, 3H, CH3);; post-emergence efficacy TRZAS ([6]; 320 g/ha): 10%; AVEFA herbicidal activity in percent (Avena fatua [8]; 320 g/ha): 100%; ABUTH herbicidal activity in percent (Abutilon theophrasti): 100%; AMARE herbicidal activity in percent (Amaranthus retroflexus; 80 g/ha): 100%; AMARE herbicidal activity in percent (Amaranthus retroflexus; 320 g/ha): 100%; MATIN herbicidal activity in percent (Matricaria inodora; 80 g/ha): 100%; MATIN herbicidal activity in percent (Matricaria inodora; 320 g/ha): 100%; CYPES herbicidal activity in percent (Cyperus esculentus; 320 g/ha): 80%; post-emergence efficacy ECHCG (Echinochloa crus-galli [12]; 80 g/ha): 90%; post-emergence efficacy ECHCG (Echinochloa crus-galli [12]; 320 g/ha): 90%; post-emergence efficacy AVEFA (Avena fatua [13]): 100%; post-emergence efficacy PHBPU (Ipomoea purpurea; [18]): 80%; post-emergence efficacy LOLMU (Lolium multiflorum [15]; 80 g/ha): 80%; post-emergence efficacy LOLMU (Lolium multiflorum [15]; 320 g/ha): 100%; post-emergence efficacy SETVI (Setaria viridis [17]): 80%
